The record followed here is patent publication US9102607B2 (priority 2009, dated 2015).

The structures appear in SMILES notation. In brackets after ≈: the same amount, converted by molar mass. Several values for one entry are separate records, joined by “and”; a condition that tells them apart may be missing. Equal values may be shown once. Read-outs that look alike come from different tables or passages of the source.

One assay deals with TPA-induced ear oedema. Briefly: Anti-inflammatory activity after a single topical administration in TPA-induced ear oedema. It counts as in vivo, mouse. Particulars: for Inhibition vs TPA (%) / Ear oedema Mean / anti-inflammatory effect (in words): single topical application; for Inhibition vs TPA (%): T6 h; for Ear oedema Mean: ear thickness at T6 h; for anti-inflammatory effect compared to BPO 5% (in words): compared to BPO at 5%. On the procedure: the aim is to evaluate the anti-inflammatory activity of the peroxides by measuring the thickness of mouse ear after TPA topical application. The anti-inflammatory activity is defined as a inhibition percentage of the TAP-induced ear oedema.
An oedema was induced by a single topical application of 20 μl of TPA dissolved in acetone at 0.01%.
Then a single topical application of tested compounds dissolved in TPA solution.
Ear thickness was measured at T6 h.
Results are expressed in percentages based on the inhibition on the oedema induced by the TPA application.
Benzoyl peroxide (BPo) was tested 2 times as a reference peroxide.

The next assay concerns P. acnes CIP53.117. The experiment in a line: microbe, parasite or virus in culture. The format is cell-based, Propionibacterium acnes.
[1] abbreviates: compound 5% in TPA 0.01% solution.
Where [2] appears, read: Cutibacterium acnes, CIP53, 72 h.
Setting [3] is: compound 1% in TPA 0.01% solution.
Where [4] appears, read: compound 2.5% in TPA 0.01% solution.

Regarding `O=C(OOC(=O)c1ccccc1)c1ccccc1` [BPO, Benzoyl peroxide, reference compound], in the assay with TPA-induced ear oedema (setting [1]), the “Inhibition vs TPA (%)” value is 21.4% and 27.8%; the “Ear oedema Mean” value is 17.60 and 20.80.
The compound `CCOC(=O)Oc1ccccc1C(=O)OOC(=O)c1ccccc1` [Example 1, (2-(Ethoxycarbonyloxy)benzoyl)benzoyl peroxide] displayed an MIC in the assay on P. acnes CIP53.117 (setting [2]) of 80 µg/mL (≈ 242 µM). Moreover, in the assay on TPA-induced ear oedema (1%, 2.5% and 5%), the “anti-inflammatory effect (in words)” value is given as “dose-dependent anti-inflammatory effect”. Besides, the “anti-inflammatory effect compared to BPO 5% (in words)” value in the assay with TPA-induced ear oedema was “significantly superior”. For the same compound, the “Inhibition vs TPA (%)” value in the assay on TPA-induced ear oedema (setting [3]) is listed as 13.9%; with TPA-induced ear oedema (setting [4]), 29.9%; with TPA-induced ear oedema (setting [1]), 53.5%. Further, the “Ear oedema Mean” value in the assay on TPA-induced ear oedema (setting [3]) came out at 24.80; with TPA-induced ear oedema (setting [4]), 20.20; in the assay with TPA-induced ear oedema (setting [1]), 13.40.
In the assay with P. acnes CIP53.117 (setting [2]), `CC(C)(C)OC(=O)Oc1ccccc1C(=O)OOC(=O)c1ccccc1` [Example 2, (2-(tert-Butoxycarbonyloxy)benzoyl)benzoyl peroxide] yielded an MIC of 40 µg/mL (≈ 112 µM).
Consider `CCOC(=O)Oc1ccccc1C(=O)OOC(=O)c1ccccc1OC(=O)OCC` [Example 3, Bis(2-(ethoxycarbonyloxy)benzoyl)peroxide], for which, in the assay on P. acnes CIP53.117 (setting [2]), the MIC was 160 µg/mL (≈ 382 µM). Besides, in the assay on TPA-induced ear oedema (1%, 2.5% and 5%), the “anti-inflammatory effect (in words)” value is reported as “strong dose-dependent anti-inflammatory effect”. Besides, the “Inhibition vs TPA (%)” value in the assay with TPA-induced ear oedema (setting [3]) worked out at 45.7%; with TPA-induced ear oedema (setting [4]), 66.1%; in the assay with TPA-induced ear oedema (setting [1]), 81.1%. Besides, the entries for the “Ear oedema Mean” value with TPA-induced ear oedema (setting [3]), in the assay with TPA-induced ear oedema (setting [4]) and with TPA-induced ear oedema (setting [1]) were 13.80, 8.60 and 4.80, respectively.
`CC(C)OC(=O)Oc1ccccc1C(=O)OOC(=O)c1ccccc1` [Example 5, (2-(Isopropoxycarbonyloxy)benzoyl)benzoyl peroxide]: the MIC with P. acnes CIP53.117 (setting [2]) came out at 40 µg/mL (≈ 116 µM). Besides, the “anti-inflammatory effect (in words)” value in the assay on TPA-induced ear oedema (at 5%) was “significant anti-inflammatory effect”. In addition, the “anti-inflammatory effect compared to BPO 5% (in words)” value with TPA-induced ear oedema was “stronger anti-inflammatory effect”. The results for the “Inhibition vs TPA (%)” value in the assay with TPA-induced ear oedema (setting [3]), in the assay on TPA-induced ear oedema (setting [4]) and in the assay on TPA-induced ear oedema (setting [1]) were 8.9%, 44.6% and 72.3%, respectively. Further, the “Ear oedema Mean” value in the assay on TPA-induced ear oedema (setting [3]) is on record as 20.40; in the assay with TPA-induced ear oedema (setting [4]), 12.40; in the assay with TPA-induced ear oedema (setting [1]), 6.20.
In the assay on P. acnes CIP53.117 (setting [2]), `CC(C)OC(=O)Oc1ccccc1C(=O)OOC(=O)c1ccccc1OC(=O)OC(C)C` [Example 6, Bis(2-(isopropoxycarbonyloxy)benzoyl)peroxide] displayed an MIC of 80 µg/mL (≈ 179 µM). In addition, the “anti-inflammatory effect (in words)” value in the assay on TPA-induced ear oedema (1%, 2.5% and 5%) was “strong dose-dependent anti-inflammatory effect”. Further, the “anti-inflammatory effect compared to BPO 5% (in words)” value with TPA-induced ear oedema was “stronger anti-inflammatory effect”. For the same compound, the “Inhibition vs TPA (%)” value in the assay with TPA-induced ear oedema (setting [3]) worked out at 57.1%; with TPA-induced ear oedema (setting [4]) it was 78.6%; in the assay on TPA-induced ear oedema (setting [1]), 93.8%. Moreover, the “Ear oedema Mean” value in the assay on TPA-induced ear oedema (setting [3]) is 9.60; in the assay on TPA-induced ear oedema (setting [4]), 4.80; with TPA-induced ear oedema (setting [1]), 1.40.
In the case of `CC(C)(C)C(=O)Oc1ccccc1C(=O)OOC(=O)c1ccccc1` [Example 9, (2-(tert-Butyryloxy)benzoyl)benzoyl peroxide], the MIC in the assay on P. acnes CIP53.117 was 320 µg/mL (≈ 935 µM).
Compound `CC(C)C(=O)Oc1ccccc1C(=O)OOC(=O)c1ccccc1` [Example 10, (2-(Isobutyryloxy)benzoyl)benzoyl peroxide] yielded an MIC against P. acnes CIP53.117 (setting [2]) of 80 µg/mL (≈ 244 µM).
Regarding `O=C(CC12CC3CC(CC(C3)C1)C2)Oc1ccccc1C(=O)OOC(=O)c1ccccc1` [Example 12, [2-(2-(Adamantan-1-yl)acetoxy)benzoyl]benzoyl peroxide], the MIC with P. acnes CIP53.117 (setting [2]) was found to be 320 µg/mL (≈ 736 µM).
